Data reported in US8063101B2, “Carotenoid analogs and derivatives for the prevention of platelet aggregation” (Cardax Pharmaceuticals, Inc., priority 2007, dated 2011).
Like-named read-outs stand apart in the source and are kept apart here. One block for each molecule: values may come before it.

Tests used:
[1] = Dog PK of astaxanthin derivatives (CXPK07402, 07404, 07405, 07406)
Experimental: In another experiment, ADL was administered to non-naïve beagle dogs orally (as an aqueous suspension containing 0.5% carboxymethylcellulose) and intravenously as an aqueous solution. Oral doses that included 10 mg/kg of the carotenoid derivative, 100 mg/kg of the carotenoid derivative, and 500 mg/kg of the carotenoid derivative were administered to each dog. The intravenous dosage was 5 mg/kg. (See FIG. 20, PK Study #CXPK07402). For each carotenoid derivative given to the dogs in this example, the amount of all astaxanthin isomers, the amount of trans astaxanthin isomers, and the amount of cis astaxanthin isomers in the plasma was determined at predefined time intervals for 3 days (72 hours).
In another experiment, ADL was administered to naïve beagle dogs orally (as an aqueous suspension containing 0.5% carboxymethylcellulose) twice a day for six days. Each oral dose included 75 mg/kg of the carotenoid derivative. (See FIG. 20, PK Study #CXPK07404). For each carotenoid derivative given to the dogs in this example, the amount of all astaxanthin isomers, the amount of trans astaxanthin isomers, and the amount of cis astaxanthin isomers in the plasma was determined at predefined time intervals for 6 days.
In another experiment, all-trans 3S,3′ S-astaxanthin diester di-beta-alanine dihydrochloride salt (hereinafter “ADA”); ADG; ADL; ADSa; and ADS were administered orally to separate non-naïve dogs as a aqueous suspension containing 0.5% carboxymethylcellulose. A single dose that included 20 mg/kg of the carotenoid derivative was administered to each dog. (See FIG. 20, PK Study #CXPK07405). For each carotenoid derivative given to the dogs in this example, the amount of all astaxanthin isomers was determined at predefined time intervals for 3 days (72 hours).
In another experiment, ADG or ADSa was administered to non-naïve beagle dogs orally (as an aqueous suspension containing 0.5% carboxymethylcellulose). Oral doses included either 50 mg/kg of the carotenoid derivative or 100 mg/kg of the carotenoid derivative. (See FIG. 20, PK Study #CXPK07406). For each carotenoid derivative given to the dogs in this example, the amount of all astaxanthin isomers, the amount of trans astaxanthin isomers, and the amount of cis astaxanthin isomers in the plasma was determined at predefined time intervals for 3 days (72 hours).

[2] = parameters: species or system rats; settings: in vivo, po, 500 mg/kg
Experimental: In one experiment, astaxanthin; all-trans 3S,3'S-astaxanthin diester disuccinate disodium salt (hereinafter “ADS”); and all-trans 3S,3'S-astaxanthin diester […] tetrahydrochloride salt (hereinafter “ADL”) were administered orally to separate rats as a lipid suspension. A single dose that included 500 mg/kg of the carotenoid/carotenoid derivative was administered to each rat. (See FIG. 20, PK Study #CXPK07201). Plasma from each of the rats was collected 4 hours after ingestion and 8 hours after ingestion and all samples were analyzed by high performance liquid chromatography (“HPLC”). HPLC analysis was used to detect the presence of free underivatized carotenoid (e.g., in this example, astaxanthin) in the plasma. HPLC chromatograms were collected for each plasma sample taken.

[3] = rat, in vivo
Experimental: In a another experiment, all-trans 3S,3′S-astaxanthin diester diglycinate dihydrochloride salt (hereinafter “ADG”); all-trans 3S,3′S-astaxanthin diester disarcosinate dihydrochloride salt (hereinafter “ADSa”); and ADL were administered orally to separate rats as a aqueous suspension containing 0.5% carboxymethylcellulose. A single dose that included 40 mg/kg of the carotenoid derivative was administered to each rat. (See FIG. 20, PK Study #CXPK07202). For each carotenoid derivative given to the rats in this example, the amount of all astaxanthin isomers, the amount of trans astaxanthin isomers, and the amount of cis astaxanthin isomers in the plasma was determined at predefined time intervals for 3 days (72 hours).
In another experiment, ADG; ADSa; and ADL were administered to separate rats intravenously as an aqueous solution. A single dose that included 5 mg/kg of the carotenoid derivative was administered to each rat. (See FIG. 20, PK Study #CXPK07202). For each carotenoid derivative given to the rats in this example, the amount of all astaxanthin isomers, the amount of trans astaxanthin isomers, and the amount of cis astaxanthin isomers in the plasma was determined at predefined time intervals for 3 days (72 hours).

[4] = system: vascular platelets; test: Platelet-derived nitric oxide (NO) release after IP3 stimulation, NO nanosensor; type: cell-based, Wistar-Kyoto (WKY) rats
Experimental: Wistar-Kyoto (WKY) rats were anaesthetized and blood was collected directly from the heart using a 10 mL syringe that contained 3.8% sodium citrate (9:1, v v^−1). […] The platelet rich plasma (PRP) was then removed by aspiration. […] The number of platelets was counted and adjusted to 3.5×10^8 per mL with Tyrode-HEPES buffer. The platelets were incubated in an aggregometer with a NO nanosensor (working electrode) placed in the platelet suspension. […] All measurements of NO release were conducted in Hank's balanced salt solution (HBSS) at 37° C. The sensor operated with a three-electrode system: nanosensor (working electrode), saturated calomel electrode (reference electrode), and platinum wire (counter electrode, 0.5 mm diameter). The three electrodes were connected to a potentiostat/galvanostat PAR273. The baseline was stabilized after ˜20 s. With a nanoinjector, the test compounds were injected onto the surface of the cells following solubilization in buffer. In experiments with multiple compounds, the compounds were injected simultaneously. […] Data were acquired with the use of custom software. Amperograms (current vs. time curves) were recorded with a Guniry FAS1 Femtostat (Warminster, Pa.). The nanosensor for NO was calibrated using saturated solution (concentration 1.82 mM verified with the coulometric method). […] The data were presented as mean±S.D. for each of the triplicate measurements. The data (calculation and plotting) were transferred to Microcal Origin Software (OriginLab Corp., Northampton, Mass.). […] The NO concentration was calculated using current responses obtained from standard NO solution (prepared from […] stock solution, saturated aqueous NO solution).

[5] = Aqueous dispersibility; type: physicochemical; settings: USP-purified water; no heat, detergents, co-solvents
From the text: In some embodiments, highly water-dispersible C40 carotenoid derivatives may include natural source RRR-lutein (β,ε-carotene-3,3′-diol) derivatives. Derivatives may be synthesized by esterification with inorganic phosphate and succinic acid, respectively, and subsequently converted to the sodium salts. Deep orange, evenly colored aqueous suspensions were obtained after addition of these derivatives to USP-purified water. […] Aqueous suspensions may be obtained without the addition of heat, detergents, co-solvents, or other additives.
Disodium disuccinate astaxanthin (DDA; see FIG. 1B) was synthesized from commercially available crystalline astaxanthin (Buckton Scott, India) as previously described in Frey, et al. (“The efficient synthesis of disodium disuccinate astaxanthin (Cardax).” Org Process Res Dev 8: 796-801, 2004.). The final product purity was 97% (as area under the curve) by HPLC analysis. DDA was dissolved directly in sterile-filtered deionized water. The maximum aqueous dispersibility of DDA is approximately 10 mM, or 8.64 mg/ml. Vehicle consisted of isotonic sterile 0.9% NaCl solution.

[6] = system: human umbilical vein endothelial cells (HUVEC); test: Calcium ionophore (CaI)-stimulated total nitric oxide release from HUVEC; type: cell-based; settings: 3S,3′S-AST 5.0 μM, clopidogrel 1.0 μM, alone or in combination; FIG. 5
Experimental: (§1) Human umbilical vein endothelial cells (HUVECs) were isolated into primary cultures from white female donors by Clonetics (San Diego, Calif.), essentially as described (Mason et al. 2005). All donors were reported to be healthy and none had pregnancy or prenatal complications. All measurements were recorded in vitro using a sensitive porphyrinic probe, also as previously described. HUVEC cells were grown in Ham's F12K medium with 2 mM L-glutamine adjusted to contain 1.5 g/L sodium bicarbonate and supplemented with 0.1 mg/mL heparin and 0.03-0.05 mg/mL endothelial cell growth supplement (ECGS) plus 10% fetal bovine serum. The HUVEC cells were kept in an atmosphere of elevated CO2 concentration (5%).
All measurements of NO release were conducted in Hank's balanced salt solution (HBSS) at 37° C. The sensor operated with a three-electrode system: nanosensor (working electrode), saturated calomel electrode (reference electrode), and platinum wire (counter electrode, 0.5 mm diameter). The three electrodes were connected to a potentiostat/galvanostat PAR273. […] The current (amps) proportional to the NO concentration was measured with the sensor, which operated in amperometric mode at a constant potential of 0.63 V. Data were acquired with the use of custom software. Amperograms (current vs. time curves) were recorded with a Guniry FAS1 Femtostat (Warminster, Pa.).

[7] = system: human umbilical vein endothelial cells (HUVEC); test: CaI-stimulated NO/OONO- release ratio from HUVEC; type: cell-based; settings: 3S,3′S-AST 5.0 μM, clopidogrel 1.0 μM, alone or in combination; FIG. 7
Experimental: as §1

[8] = system: human umbilical vein endothelial cells (HUVEC); test: Calcium ionophore (CaI)-stimulated total peroxynitrite release from HUVEC; type: cell-based; settings: 3S,3′S-AST 5.0 μM, clopidogrel 1.0 μM, alone or in combination; FIG. 6
Experimental: as §1

Compound: CC(C=CC=C(C)C=CC1=C(C)C(=O)C(OC(=O)CCN)CC1(C)C)=CC=CC=C(C)C=CC=C(C)C=CC1=C(C)C(=O)C(OC(=O)CCN)CC1(C)C.Cl.Cl (stereo not drawn) [ADA, all-trans 3S,3′ S-astaxanthin diester di-beta-alanine dihydrochloride salt]
absorption and metabolism to astaxanthin in plasma ([1]; non-naïve dogs, single oral 20 mg/kg): absorbed by the dogs and metabolized

absorption and metabolism to astaxanthin in plasma ([1]; dog, in vivo, po, 20 mg/kg): absorbed by the dogs and metabolized | absorption and metabolism to astaxanthin in plasma ([1]; dog, in vivo, po, 75 mg/kg): absorbed by the dogs and metabolized | free astaxanthin in rat plasma [2]: significant amount | absorption and metabolism to astaxanthin in plasma ([3]; iv, 5 mg/kg): absorbed by the rats and metabolized | absorption and metabolism to astaxanthin in plasma ([3]; po, 40 mg/kg): absorbed by the rats and metabolized
Compound: CC1=C(/C=C/C(C)=C/C=C/C(C)=C/C=C/C=C(C)/C=C/C=C(C)/C=C/C2=C(C)C(=O)[C@@H](OC(=O)[C@@H](N)CCCCN)CC2(C)C)C(C)(C)C[C@H](OC(=O)[C@@H](N)CCCCN)C1=O.Cl.Cl.Cl.Cl (relative stereo) [ADL, all-trans 3S,3′S-astaxanthin diester dilysinate tetrahydrochloride salt]

Compound: CCC(C)(C)C(=O)O[C@H]1C[C@@H](C)C=C2C=C[C@H](C)[C@H](CC[C@@H]3C[C@@H](O)CC(=O)O3)[C@H]21 [simvastatin, reference compound]
effect on platelet-derived NO release ([4]; 1.0 μM, IP3 1.0 μM, FIG. 11): no effect

aqueous dispersibility [5]: 2.85 mg/mL
Compound: CC(C=CC=C(C)C=CC1=C(C)CC(OC(=O)CCC(=O)[O-])CC1(C)C)=CC=CC=C(C)C=CC=C(C)C=CC1C(C)=CC(OC(=O)CCC(=O)[O-])CC1(C)C.[Na+].[Na+] (centres unmarked)

absorption and metabolism to astaxanthin in plasma ([1]; dog, in vivo, po, 20 mg/kg): absorbed by the dogs and metabolized | absorption and metabolism to astaxanthin in plasma ([3]; iv, 5 mg/kg): absorbed by the rats and metabolized | absorption and metabolism to astaxanthin in plasma ([3]; po, 40 mg/kg): absorbed by the rats and metabolized
Compound: CC1=C(/C=C/C(C)=C/C=C/C(C)=C/C=C/C=C(C)/C=C/C=C(C)/C=C/C2=C(C)C(=O)[C@@H](OC(=O)CN)CC2(C)C)C(C)(C)C[C@H](OC(=O)CN)C1=O.Cl.Cl (relative stereo) [ADG, all-trans 3S,3′S-astaxanthin diester diglycinate dihydrochloride salt]

absorption and metabolism to astaxanthin in plasma ([1]; dog, in vivo, po, 20 mg/kg): absorbed by the dogs and metabolized | free astaxanthin in rat plasma [2]: significant amount
Compound: CC1=C(/C=C/C(C)=C/C=C/C(C)=C/C=C/C=C(C)/C=C/C=C(C)/C=C/C2=C(C)C(=O)[C@@H](OC(=O)CCC(=O)[O-])CC2(C)C)C(C)(C)C[C@H](OC(=O)CCC(=O)[O-])C1=O.[Na+].[Na+] (relative stereo) [ADS, all-trans 3S,3′S-astaxanthin diester disuccinate disodium salt]

Compound: COC(=O)[C@H](c1ccccc1Cl)N1CCc2sccc2C1 [clopidogrel, reference compound]
total NO release from vascular platelets ([4]; IP3 stimulation, homochiral astaxanthin 5.0 μM, clopidogrel 1.0 μM, controls 6.6±0.3, mean±S.D.): 10.2±0.4 molecules NO×10^6/platelet | effect on CaI-stimulated total nitric oxide release from HUVEC [6]: did not significantly change | effect on CaI-stimulated NO/OONO− release ratio from HUVEC [7]: did not significantly change | effect on CaI-stimulated total peroxynitrite (OONO−) release from HUVEC [8]: did not significantly change
